In ChEMBL document CHEMBL4507256 (2021):

Key:
[1] = biological target: Serine/threonine-protein kinase 38-like (Homo sapiens) (UniProt Q9Y2H1); settings: Compound concentration 1000.0 nM
[2] = test system: Epidermal growth factor receptor (Homo sapiens), P00533 [G719C]; settings: Compound concentration 1000.0 nM
[3] = biological target: Myosin light chain kinase (Homo sapiens) (UniProt Q32MK0); settings: Compound concentration 1000.0 nM
[4] = biological target: Serine/threonine-protein kinase Nek10 (Homo sapiens) (UniProt Q6ZWH5); settings: Compound concentration 1000.0 nM
[5] = biological target: Transient receptor potential cation channel subfamily M member 6 (Homo sapiens) (UniProt Q9BX84); settings: Compound concentration 1000.0 nM
Sequence of Transient receptor potential cation channel subfamily M member 6 (Homo sapiens) (Q9BX84 whole entry): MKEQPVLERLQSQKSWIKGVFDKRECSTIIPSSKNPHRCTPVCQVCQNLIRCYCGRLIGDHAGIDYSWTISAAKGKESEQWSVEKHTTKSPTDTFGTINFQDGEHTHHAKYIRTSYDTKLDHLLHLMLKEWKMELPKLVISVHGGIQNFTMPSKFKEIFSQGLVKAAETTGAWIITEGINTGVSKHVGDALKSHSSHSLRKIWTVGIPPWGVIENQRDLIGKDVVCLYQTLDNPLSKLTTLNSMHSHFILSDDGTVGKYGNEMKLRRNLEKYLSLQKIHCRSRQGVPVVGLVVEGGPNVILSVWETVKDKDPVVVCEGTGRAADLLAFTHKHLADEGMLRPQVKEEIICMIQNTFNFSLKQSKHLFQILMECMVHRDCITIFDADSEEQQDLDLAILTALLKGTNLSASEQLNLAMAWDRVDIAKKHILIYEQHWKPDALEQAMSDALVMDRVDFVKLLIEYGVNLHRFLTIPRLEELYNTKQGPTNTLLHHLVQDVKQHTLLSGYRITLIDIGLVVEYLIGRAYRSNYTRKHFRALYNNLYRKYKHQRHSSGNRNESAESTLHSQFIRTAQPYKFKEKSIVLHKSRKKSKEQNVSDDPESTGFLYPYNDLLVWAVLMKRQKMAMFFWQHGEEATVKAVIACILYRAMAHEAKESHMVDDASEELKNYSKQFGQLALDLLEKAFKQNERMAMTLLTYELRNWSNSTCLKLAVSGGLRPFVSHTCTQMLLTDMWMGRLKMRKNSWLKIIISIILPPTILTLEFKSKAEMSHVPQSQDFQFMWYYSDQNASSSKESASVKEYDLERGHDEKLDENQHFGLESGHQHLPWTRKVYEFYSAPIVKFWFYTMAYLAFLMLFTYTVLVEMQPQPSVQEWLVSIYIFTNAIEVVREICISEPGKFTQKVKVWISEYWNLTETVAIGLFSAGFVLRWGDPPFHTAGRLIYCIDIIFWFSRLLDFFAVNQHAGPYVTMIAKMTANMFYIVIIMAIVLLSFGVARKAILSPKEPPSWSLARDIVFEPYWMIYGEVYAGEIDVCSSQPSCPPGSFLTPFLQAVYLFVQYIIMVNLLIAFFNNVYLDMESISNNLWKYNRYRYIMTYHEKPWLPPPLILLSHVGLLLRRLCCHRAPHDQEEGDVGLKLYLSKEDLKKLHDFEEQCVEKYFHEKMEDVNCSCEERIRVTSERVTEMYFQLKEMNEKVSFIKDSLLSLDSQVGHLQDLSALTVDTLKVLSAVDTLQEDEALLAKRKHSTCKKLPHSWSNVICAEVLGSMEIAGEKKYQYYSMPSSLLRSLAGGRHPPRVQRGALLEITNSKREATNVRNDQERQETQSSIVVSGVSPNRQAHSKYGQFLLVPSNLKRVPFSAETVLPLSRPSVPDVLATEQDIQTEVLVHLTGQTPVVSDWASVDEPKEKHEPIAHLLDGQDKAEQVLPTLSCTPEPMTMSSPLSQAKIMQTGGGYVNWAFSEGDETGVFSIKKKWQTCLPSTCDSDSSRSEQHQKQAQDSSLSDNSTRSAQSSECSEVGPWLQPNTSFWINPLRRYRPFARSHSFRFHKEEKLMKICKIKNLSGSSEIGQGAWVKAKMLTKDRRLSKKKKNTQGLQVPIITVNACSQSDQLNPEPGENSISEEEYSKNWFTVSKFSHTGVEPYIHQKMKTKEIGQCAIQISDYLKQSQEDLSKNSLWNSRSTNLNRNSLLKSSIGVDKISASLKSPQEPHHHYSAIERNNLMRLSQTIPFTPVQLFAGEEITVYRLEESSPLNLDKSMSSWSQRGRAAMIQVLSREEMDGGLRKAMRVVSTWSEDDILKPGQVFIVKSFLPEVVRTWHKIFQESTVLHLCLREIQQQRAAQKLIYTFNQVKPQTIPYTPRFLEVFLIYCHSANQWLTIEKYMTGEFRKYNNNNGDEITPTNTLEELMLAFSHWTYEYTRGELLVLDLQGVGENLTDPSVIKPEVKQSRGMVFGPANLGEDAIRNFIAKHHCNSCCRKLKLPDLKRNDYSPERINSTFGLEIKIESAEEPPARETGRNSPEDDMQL

[6] = biological target: Ribosomal protein S6 kinase alpha-2 (Homo sapiens) (UniProt Q15349); settings: Compound concentration 1000.0 nM
[7] = biological target: Serine/threonine-protein kinase 17B (Homo sapiens) (UniProt O94768); settings: Compound concentration 1000.0 nM
Sequence of Serine/threonine-protein kinase 17B (Homo sapiens) (O94768 whole entry): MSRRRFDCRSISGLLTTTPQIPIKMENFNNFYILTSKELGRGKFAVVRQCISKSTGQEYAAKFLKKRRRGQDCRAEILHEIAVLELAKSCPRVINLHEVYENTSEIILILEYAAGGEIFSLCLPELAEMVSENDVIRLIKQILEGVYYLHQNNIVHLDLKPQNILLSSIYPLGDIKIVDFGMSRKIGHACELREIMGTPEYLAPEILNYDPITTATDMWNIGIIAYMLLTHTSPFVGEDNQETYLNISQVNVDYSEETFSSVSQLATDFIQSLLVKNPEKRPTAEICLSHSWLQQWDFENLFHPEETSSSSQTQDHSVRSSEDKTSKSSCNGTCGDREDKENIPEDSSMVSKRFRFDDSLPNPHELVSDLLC

[8] = biological target: Receptor tyrosine-protein kinase erbB-2 (Homo sapiens) (UniProt P04626); settings: Compound concentration 1000.0 nM
[9] = biological target: Dual specificity protein kinase CLK4 (Homo sapiens) (UniProt Q9HAZ1); settings: Compound concentration 1000.0 nM
[10] = test system: eIF-2-alpha kinase GCN2 (Homo sapiens), Q9P2K8 [S808G]; settings: Compound concentration 1000.0 nM
[11] = biological target: Alpha-1A adrenergic receptor (Homo sapiens) (UniProt P35348); settings: Compound concentration 10.0 uM
[12] = biological target: Mitogen-activated protein kinase 4 (Homo sapiens) (UniProt P31152); settings: Compound concentration 1000.0 nM
[13] = biological target: Casein kinase I isoform alpha (Homo sapiens) (UniProt P48729); settings: Compound concentration 1000.0 nM
Sequence of Casein kinase I isoform alpha (Homo sapiens) (P48729 2-337 limits assumed): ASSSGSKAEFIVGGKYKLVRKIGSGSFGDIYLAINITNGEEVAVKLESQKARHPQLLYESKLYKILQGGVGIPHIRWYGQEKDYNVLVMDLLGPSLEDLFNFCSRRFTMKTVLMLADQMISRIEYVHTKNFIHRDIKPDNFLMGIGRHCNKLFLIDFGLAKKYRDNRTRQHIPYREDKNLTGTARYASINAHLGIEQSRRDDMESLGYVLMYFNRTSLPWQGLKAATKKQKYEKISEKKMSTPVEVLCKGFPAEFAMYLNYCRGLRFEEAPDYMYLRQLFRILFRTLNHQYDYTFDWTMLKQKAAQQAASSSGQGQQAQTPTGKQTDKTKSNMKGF

[14] = biological target: Death-associated protein kinase 2 (Homo sapiens) (UniProt Q9UIK4); settings: Compound concentration 1000.0 nM
[15] = biological target: Serine/threonine-protein kinase PRP4 homolog (Homo sapiens) (UniProt Q13523); settings: Compound concentration 1000.0 nM
[16] = test system: Receptor-type tyrosine-protein kinase FLT3 (Homo sapiens), P36888 [D835Y]; settings: Compound concentration 1000.0 nM
[17] = biological target: Ephrin type-A receptor 8 (Homo sapiens) (UniProt P29322); settings: Compound concentration 1000.0 nM
[18] = biological target: Serine/threonine-protein kinase Sgk3 (Homo sapiens) (UniProt Q96BR1); settings: Compound concentration 1000.0 nM
Sequence of Serine/threonine-protein kinase Sgk3 (Homo sapiens) (Q96BR1 whole entry): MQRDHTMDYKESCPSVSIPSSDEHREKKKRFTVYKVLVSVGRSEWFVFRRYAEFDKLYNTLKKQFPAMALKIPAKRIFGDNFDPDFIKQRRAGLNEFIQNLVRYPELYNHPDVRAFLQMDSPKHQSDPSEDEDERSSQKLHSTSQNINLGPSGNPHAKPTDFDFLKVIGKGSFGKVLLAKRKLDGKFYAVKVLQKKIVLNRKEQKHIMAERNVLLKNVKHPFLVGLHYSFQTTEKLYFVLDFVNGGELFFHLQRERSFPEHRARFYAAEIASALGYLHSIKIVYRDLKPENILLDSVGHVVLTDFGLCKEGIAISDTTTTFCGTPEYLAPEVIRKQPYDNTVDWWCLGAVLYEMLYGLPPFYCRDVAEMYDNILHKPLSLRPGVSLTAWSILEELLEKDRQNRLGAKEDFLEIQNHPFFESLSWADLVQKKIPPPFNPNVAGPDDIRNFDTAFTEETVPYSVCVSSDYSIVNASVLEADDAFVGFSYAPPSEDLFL

[19] = biological target: Mitogen-activated protein kinase kinase kinase 5 (Homo sapiens) (UniProt Q99683); settings: Compound concentration 1000.0 nM
[20] = biological target: Ephrin type-A receptor 2 (Homo sapiens) (UniProt P29317); settings: Compound concentration 1000.0 nM
[21] = biological target: Rhodopsin kinase GRK1 (Homo sapiens) (UniProt Q15835); settings: Compound concentration 1000.0 nM
[22] = biological target: Interleukin-1 receptor-associated kinase 4 (Homo sapiens) (UniProt Q9NWZ3); settings: Compound concentration 1000.0 nM
[23] = biological target: Cyclin-dependent kinase 3 (Homo sapiens) (UniProt Q00526); settings: Compound concentration 1000.0 nM
[24] = biological target: Serine/threonine-protein kinase PknB (Mycobacterium tuberculosis) (UniProt P9WI81); settings: Compound concentration 1000.0 nM
Sequence of Serine/threonine-protein kinase PknB (Mycobacterium tuberculosis) (P9WI81 whole entry): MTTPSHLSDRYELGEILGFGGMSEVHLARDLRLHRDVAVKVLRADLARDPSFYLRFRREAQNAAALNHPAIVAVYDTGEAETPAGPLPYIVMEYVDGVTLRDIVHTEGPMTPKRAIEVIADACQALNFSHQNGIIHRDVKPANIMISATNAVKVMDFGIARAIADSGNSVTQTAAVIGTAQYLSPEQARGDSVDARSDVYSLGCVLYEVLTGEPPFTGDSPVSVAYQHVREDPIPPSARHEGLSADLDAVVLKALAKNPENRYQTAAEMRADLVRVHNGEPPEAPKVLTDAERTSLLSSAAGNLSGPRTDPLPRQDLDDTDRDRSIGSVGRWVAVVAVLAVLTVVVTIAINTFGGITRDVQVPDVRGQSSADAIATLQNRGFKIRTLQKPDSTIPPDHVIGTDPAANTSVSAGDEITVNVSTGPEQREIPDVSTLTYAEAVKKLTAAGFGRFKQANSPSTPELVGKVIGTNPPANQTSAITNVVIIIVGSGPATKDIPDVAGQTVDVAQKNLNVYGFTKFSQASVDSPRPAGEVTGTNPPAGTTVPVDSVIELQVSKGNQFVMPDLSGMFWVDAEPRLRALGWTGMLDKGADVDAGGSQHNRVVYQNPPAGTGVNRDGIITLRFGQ

[25] = biological target: Dual specificity testis-specific protein kinase 1 (Homo sapiens) (UniProt Q15569); settings: Compound concentration 1000.0 nM
Sequence of Dual specificity testis-specific protein kinase 1 (Homo sapiens) (Q15569 whole entry, looked up): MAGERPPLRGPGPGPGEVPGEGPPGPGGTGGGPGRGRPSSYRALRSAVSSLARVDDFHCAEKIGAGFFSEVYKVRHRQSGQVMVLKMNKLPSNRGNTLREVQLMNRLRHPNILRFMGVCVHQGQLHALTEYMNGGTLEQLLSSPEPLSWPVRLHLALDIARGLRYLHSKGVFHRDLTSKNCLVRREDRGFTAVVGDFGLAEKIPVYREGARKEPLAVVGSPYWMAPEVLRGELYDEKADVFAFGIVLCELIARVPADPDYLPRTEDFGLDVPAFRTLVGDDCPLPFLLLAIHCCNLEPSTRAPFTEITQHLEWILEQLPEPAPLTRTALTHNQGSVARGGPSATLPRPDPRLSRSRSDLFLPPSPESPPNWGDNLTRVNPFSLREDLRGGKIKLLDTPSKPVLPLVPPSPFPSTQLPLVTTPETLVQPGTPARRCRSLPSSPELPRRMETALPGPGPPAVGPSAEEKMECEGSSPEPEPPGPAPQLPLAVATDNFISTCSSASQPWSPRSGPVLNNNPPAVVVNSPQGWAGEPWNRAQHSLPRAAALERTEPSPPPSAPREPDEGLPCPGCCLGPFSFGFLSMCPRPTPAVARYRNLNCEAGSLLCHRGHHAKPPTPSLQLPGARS

[26] = biological target: Kappa-type opioid receptor (Homo sapiens) (UniProt P41145); settings: Compound concentration 10.0 uM
[27] = biological target: T1, D(4) dopamine receptor (Homo sapiens) (UniProt P21917); settings: Compound concentration 10.0 uM
T1 sequence (whole entry): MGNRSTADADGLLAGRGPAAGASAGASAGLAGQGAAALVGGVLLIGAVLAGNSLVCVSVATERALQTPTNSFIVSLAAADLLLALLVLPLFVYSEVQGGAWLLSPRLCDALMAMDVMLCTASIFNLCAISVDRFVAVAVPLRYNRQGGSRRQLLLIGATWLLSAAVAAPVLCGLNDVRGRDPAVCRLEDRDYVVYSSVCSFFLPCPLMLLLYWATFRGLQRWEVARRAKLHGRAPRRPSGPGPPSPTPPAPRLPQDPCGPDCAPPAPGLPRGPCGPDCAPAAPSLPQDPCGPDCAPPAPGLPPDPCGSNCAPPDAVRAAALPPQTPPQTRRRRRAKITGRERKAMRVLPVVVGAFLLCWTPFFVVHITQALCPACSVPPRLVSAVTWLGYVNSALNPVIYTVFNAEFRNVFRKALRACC

[28] = biological target: T2, Muscarinic acetylcholine receptor M5 (Homo sapiens) (UniProt P08912); settings: Compound concentration 10.0 uM
T2 sequence (whole entry): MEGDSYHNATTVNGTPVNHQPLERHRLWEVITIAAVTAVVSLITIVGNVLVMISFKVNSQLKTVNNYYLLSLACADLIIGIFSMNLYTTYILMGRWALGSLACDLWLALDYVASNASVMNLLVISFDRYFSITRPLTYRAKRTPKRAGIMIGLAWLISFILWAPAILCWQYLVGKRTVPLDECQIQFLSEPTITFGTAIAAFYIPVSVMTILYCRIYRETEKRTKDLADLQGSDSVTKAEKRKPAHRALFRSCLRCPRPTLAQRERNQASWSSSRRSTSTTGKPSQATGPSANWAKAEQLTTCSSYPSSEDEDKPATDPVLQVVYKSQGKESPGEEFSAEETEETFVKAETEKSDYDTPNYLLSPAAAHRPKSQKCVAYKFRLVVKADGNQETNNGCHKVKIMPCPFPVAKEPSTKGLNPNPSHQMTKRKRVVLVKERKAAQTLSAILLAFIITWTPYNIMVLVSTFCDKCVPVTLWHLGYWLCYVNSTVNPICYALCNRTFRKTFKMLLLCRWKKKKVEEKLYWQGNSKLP

[29] = biological target: Activated CDC42 kinase 1 (Homo sapiens) (UniProt Q07912); settings: Compound concentration 1000.0 nM
[30] = biological target: RAC-beta serine/threonine-protein kinase (Homo sapiens) (UniProt P31751); settings: Compound concentration 1000.0 nM
[31] = biological target: Leucine-rich repeat serine/threonine-protein kinase 2 (Homo sapiens) (UniProt Q5S007); settings: Compound concentration 1000.0 nM
[32] = biological target: Serine/threonine-protein kinase haspin (Homo sapiens) (UniProt Q8TF76); settings: Compound concentration 1000.0 nM
[33] = biological target: Tyrosine-protein kinase Yes (Homo sapiens) (UniProt P07947); settings: Compound concentration 1000.0 nM

Sequence of Serine/threonine-protein kinase 38-like (Homo sapiens) (Q9Y2H1 2-464 limits assumed): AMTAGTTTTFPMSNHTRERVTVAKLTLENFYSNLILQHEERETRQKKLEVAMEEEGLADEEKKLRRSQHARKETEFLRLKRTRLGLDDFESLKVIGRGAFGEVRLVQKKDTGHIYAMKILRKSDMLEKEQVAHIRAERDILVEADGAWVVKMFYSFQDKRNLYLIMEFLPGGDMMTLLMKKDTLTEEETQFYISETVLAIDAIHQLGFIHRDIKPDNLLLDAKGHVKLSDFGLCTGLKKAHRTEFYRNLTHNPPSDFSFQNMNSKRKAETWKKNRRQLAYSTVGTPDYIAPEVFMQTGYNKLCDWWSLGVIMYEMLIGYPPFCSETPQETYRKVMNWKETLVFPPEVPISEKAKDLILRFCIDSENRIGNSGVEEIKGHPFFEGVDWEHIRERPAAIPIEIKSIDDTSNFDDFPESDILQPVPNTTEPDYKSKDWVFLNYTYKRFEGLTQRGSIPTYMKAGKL

CCC(=N\O)/C(C)=C/c1ccc(F)c(C)c1 [A-226]
inactive: residual activity [1] 81% | residual activity [2] 83% | residual activity [3] 100% | residual activity [4] 100% | residual activity [5] 100% | residual activity [6] 100% | residual activity [7] 100% | residual activity [8] 91% | residual activity [9] 97% | residual activity [10] 50% | inhibition [11] -8.35% | residual activity [12] 96% | residual activity [13] 100% | residual activity [14] 85% | residual activity [15] 85% | residual activity [16] 100% | residual activity [17] 99% | residual activity [18] 100% | residual activity [19] 100% | residual activity [20] 89% | residual activity [21] 88% | residual activity [22] 95% | residual activity [23] 100% | residual activity [24] 92% | residual activity [25] 73% | inhibition [26] 8.6% | inhibition [27] 18.6% | inhibition [28] 2.77% | residual activity [29] 100% | residual activity [30] 84% | residual activity [31] 100% | residual activity [32] 100% | residual activity [33] 100%

CCC(=N\O)/C(C)=C/c1ccc(F)cc1 [A-079]
inactive: residual activity [1] 95% | residual activity [2] 64% | residual activity [3] 86% | residual activity [4] 95% | residual activity [5] 64% | residual activity [6] 85% | residual activity [7] 74% | residual activity [8] 83% | residual activity [9] 100% | residual activity [10] 70% | inhibition [11] -9.69% | residual activity [12] 75% | residual activity [13] 74% | residual activity [14] 97% | residual activity [15] 100% | residual activity [16] 91% | residual activity [17] 100% | residual activity [18] 81% | residual activity [19] 93% | residual activity [20] 84% | residual activity [21] 79% | residual activity [22] 100% | residual activity [23] 84% | residual activity [24] 100% | residual activity [25] 82% | inhibition [26] 15.7% | inhibition [27] 19.5% | inhibition [28] 6.68% | residual activity [29] 85% | residual activity [30] 88% | residual activity [31] 90% | residual activity [32] 65% | residual activity [33] 87%
